Source: patent publication US20080207708A1, “Oxazole and Thiazole Compounds and Their Use in the Treatment of Pge2 Mediated Disorders” (GLAXO GROUP LIMITED, priority 2005, published 2008)

Target: T1, EP1 receptors (Homo sapiens, UniProt P34995)
T1 sequence (P34995 1-402): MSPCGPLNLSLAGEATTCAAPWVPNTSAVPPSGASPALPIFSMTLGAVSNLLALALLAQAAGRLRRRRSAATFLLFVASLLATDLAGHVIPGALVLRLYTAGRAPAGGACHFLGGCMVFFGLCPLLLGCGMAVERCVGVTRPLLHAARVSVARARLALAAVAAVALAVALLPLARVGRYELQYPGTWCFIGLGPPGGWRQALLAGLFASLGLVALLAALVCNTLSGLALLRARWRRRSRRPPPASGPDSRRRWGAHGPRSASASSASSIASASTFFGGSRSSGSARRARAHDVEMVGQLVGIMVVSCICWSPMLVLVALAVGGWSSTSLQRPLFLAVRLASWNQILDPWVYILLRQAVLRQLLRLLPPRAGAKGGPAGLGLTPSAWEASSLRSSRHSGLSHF
Assay: Binding assay for the human prostanoid EP1 receptor (competition with [3H]-PGE2)
Design: expressed in transfected cells; host or cells: CHO-K1 cells, membrane fraction
Details: [3H]-PGE2 competition; averages of a number of experiments; read-out: pIC50 value, binding assay for the human prostanoid EP1 receptor (converted)
Description: Competition assay using [^3H]-PGE2.
Compound potencies are determined using a radioligand binding assay. In this assay compound potencies are determined from their ability to compete with tritiated prostaglandin E2 ([^3H]-PGE2) for binding to the human EP1 receptor.
This assay utilises Chinese hamster ovary-K1 (CHO-K1) cells into which a stable vector containing the EP1 cDNA has previously been transfected. Cells are cultured in suitable flasks containing culture medium such as DMEM:F-12 supplemented with 10% v/v foetal calf serum, 2 mM L-glutamine, 0.25 mg/ml geneticin, 10 μg/ml puromycin and 10 μM indomethacin.
Cells are detached from the culture flasks by incubation in calcium and magnesium free phosphate buffered saline containing 1 mM disodium ethylenediaminetetraacetic acid (Na2EDTA) and 10 μM indomethacin for 5 min. The cells are isolated by centrifugation at 250×g for 5mins and suspended in an ice cold buffer such as 50 mM Tris, 1 mM Na2EDTA, 140 mM NaCl, 10 μM indomethacin (pH 7.4). The cells are homogenised using a Polytron tissue disrupter (2×10 s burst at full setting), centrifuged at 48,000×g for 20mins and the pellet containing the membrane fraction is washed (optional) three times by suspension and centrifugation at 48,000×g for 20mins. The final membrane pellet is suspended in an assay buffer such as 10 mM 2-[N-morpholino]ethanesulphonic acid, 1 mM Na2EDTA, 10 mM MgCl2 (pH 6). Aliquots are frozen at […] until required.
For the binding assay the cell membranes, competing compounds and [^3H]-PGE2 (3 nM final assay concentration) are incubated in a final volume of 100 μl for 30 min at 30° C. All reagents are prepared in assay buffer. Reactions are terminated by rapid vacuum filtration over GF/B filters using a Brandell cell harvester. The filters are washed with ice cold assay buffer, dried and the radioactivity retained on the filters is measured by liquid scintillation counting in Packard TopCount scintillation counter.
The data are analysed using non linear curve fitting techniques to determine the concentration of compound producing 50% inhibition of specific binding (IC50).

Compound | IC50
NC(=O)c1nc(Cc2cc(Cl)ccc2OCc2ccc(F)cc2F)cs1 [Example 1, 4-[(5-chloro-2-{[(2,4-difluorophenyl)methyl]oxy}phenyl)methyl]-1,3-thiazole-2-carboxamide] | ≤ 1000 nM
NC(=O)c1nc(Cc2cc(Cl)ccc2OCc2ccccc2F)cs1 [Example 2, 4-[(5-chloro-2-{[(2-fluorophenyl)methyl]oxy}phenyl)methyl]-1,3-thiazole-2-carboxamide] | ≤ 1000 nM
NC(=O)c1nc(Cc2cc(Cl)ccc2OCc2ccccc2Cl)cs1 [Example 3, 4-[(5-chloro-2-{[(2-chlorophenyl)methyl]oxy}phenyl)methyl]-1,3-thiazole-2-carboxamide] | ≤ 1000 nM
NC(=O)c1nc(Cc2cc(Cl)ccc2OCc2c(F)cc(F)cc2F)cs1 [Example 4, 4-[(5-chloro-2-{[(2,4,6-trifluorophenyl)methyl]oxy}phenyl)methyl]-1,3-thiazole-2-carboxamide] | ≤ 1000 nM
NC(=O)c1nc(Cc2cc(Cl)ccc2OCc2ccc(Cl)cc2)cs1 [Example 5, 4-[(5-chloro-2-{[(4-chlorophenyl)methyl]oxy}phenyl)methyl]-1,3-thiazole-2-carboxamide] | ≤ 1000 nM
NC(=O)c1nc(Cc2cc(Cl)ccc2OCc2ccc(F)cc2Cl)cs1 [Example 6, 4-[(5-chloro-2-{[(2-chloro-4-fluorophenyl)methyl]oxy}phenyl)methyl]-1,3-thiazole-2-carboxamide] | ≤ 1000 nM
NC(=O)c1nc(Cc2cc(Cl)ccc2OCc2c(F)ccc(F)c2F)cs1 [Example 7, 4-[(5-chloro-2-{[(2,3,6-trifluorophenyl)methyl]-oxy}phenyl)methyl]-1,3-thiazole-2-carboxamide] | > 1000 nM
NC(=O)c1nc(Cc2cc(Cl)ccc2OCc2cc(F)c(F)cc2F)cs1 [Example 8, 4-[(5-chloro-2-{[(2,4,5-trifluorophenyl)methyl]oxy}phenyl)methyl]-1,3-thiazole-2-carboxamide] | ≤ 1000 nM
O=C(O)c1csc(Cc2cc(Cl)ccc2OCc2ccccc2)n1 [Example 9, 2-({5-chloro-2-[(phenylmethyl)oxy]phenyl}methyl)-1,3-thiazole-4-carboxylicacid] | ≤ 31.6 nM
O=C(O)c1csc(Cc2cc(Cl)ccc2OCc2ccccc2F)n1 [Example 10, 2-[(5-chloro-2-{[(2-fluorophenyl)methyl]oxy}phenyl)methyl]-1,3-thiazole-4-carboxylicacid] | ≤ 31.6 nM
O=C(O)c1csc(Cc2cc(Cl)ccc2OCc2ccc(Cl)cc2)n1 [Example 11, 2-[(5-chloro-2-{[(4-chlorophenyl)methyl]oxy}phenyl)methyl]-1,3-thiazole-4-carboxylicacid] | ≤ 31.6 nM
O=C(O)c1csc(Cc2cc(Cl)ccc2OCc2ccc(F)cc2)n1 [Example 12, 2-[(5-chloro-2-{[(4-fluorophenyl)methyl]oxy}phenyl)methyl]-1,3-thiazole-4-carboxylicacid] | ≤ 31.6 nM
O=C(O)c1csc(Cc2cc(Cl)ccc2OCc2c(F)cc(F)cc2F)n1 [Example 13, 2-[(5-chloro-2-{[(2,4,6-trifluorophenyl)methyl]oxy}phenyl)methyl]-1,3-thiazole-4-carboxylicacid] | ≤ 31.6 nM
O=C(O)c1csc(Cc2cc(Cl)ccc2OCc2ccc(F)cc2Cl)n1 [Example 14, 2-[(5-chloro-2-{[(2-chloro-4-fluorophenyl)methyl]oxy}phenyl)methyl]-1,3-thiazole-4-carboxylicacid] | ≤ 31.6 nM
O=C(O)c1csc(Cc2cc(Cl)ccc2OCc2ccccc2Cl)n1 [Example 15, 2-[(5-chloro-2-{[(2-chlorophenyl)methyl]oxy}phenyl)methyl]-1,3-thiazole-4-carboxylicacid] | ≤ 31.6 nM
O=C(O)c1csc(Cc2cc(Cl)ccc2OCc2ccc(F)cc2F)n1 [Example 16, 2-[(5-chloro-2-{[(2,4-difluorophenyl)methyl]oxy}phenyl)methyl]-1,3-thiazole-4-carboxylicacid] | ≤ 31.6 nM
